Reference: patent publication US10973896B2, “Treatment or prevention of melanoma using photochemical internalization of a melanoma antigen” (PCI Biotech AS, priority 2014, dated 2021)

Legend:
Format in all cases: in vivo, C57BL/6 mice
[1] = tested on: spleen cells restimulated by SIINFEKL peptide; test: Poly(IC) and CpG experiment, IFN-gamma ELISA of restimulated spleen cells (Example 4); settings: day 14 spleen cells; FIG. 19B
Protocol: For ELISA analysis 2×10^5 splenocytes were re-stimulated in 96-well plates with 0.005 μg/ml of the SIINFEKL peptide. After 72 hours, supernatants were collected and analysed for IFN-γ by ELISA (eBioscience—performed according to the manufacturer's instructions).
The experiment was performed as described under Materials and Methods, and mouse blood samples from day 7 after vaccination were analysed by flow cytometry as described. Spleen cells from day 14 were restimulated by SIINFEKL peptide and analysed by Interferon-gamma ELISA as described. All mice received OT-1 cells as described. • The following experimental groups were included: • 1. Untreated: Mice received OT-1 cells, but were not vaccinated or illuminated. • 2. OVA: Mice were vaccinated with 10 μg of OVA. They were not illuminated. • 3. OVA 100 μg: Mice were vaccinated with a mixture of 100 μg OVA. They were not illuminated. • 4. OVA 10 μg PCI: Mice were vaccinated with a mixture of 10 μg OVA+150 μg TPCS2a. Illuminated as described. • 5. CpG OVA: Mice were vaccinated with a mixture of 10 μg OVA+50 μg ODN2935 CpG oligonucleotide. They were not illuminated. • 6. CpG OVA/PCI: Mice were vaccinated with a mixture of 10 μg OVA+50 μg ODN2935 CpG oligonucleotide+150 μg TPCS2a. Illuminated as described. • 7. Poly(IC) OVA: Mice were vaccinated with a mixture of 10 μg OVA+50 μg Poly(IC). They were not illuminated. • 8. […]

[2] = tested on: OVA-expressing B16 melanoma cells; test: Therapeutic vaccination of melanoma-bearing mice (Example 1); settings: immunised after appearance of tumours under the skin; FIG. 2A
[3] = tested on: OVA-expressing B16 melanoma cells; test: Prophylactic vaccination against intradermal melanoma challenge (Example 1); settings: B16 cells intradermally five days after immunisation; FIG. 1D
Protocol: C57BL/6 mice were immunised at 6-10 weeks of age. […] The next day, the fur was shaven off the abdominal region and 100 μl of the vaccine preparations were injected intradermally. The doses of OVA and TPCS2a were 10 μg and 100 μg, respectively.
If not otherwise stated, C57BL/6 mice were vaccinated as described above 4-5 days prior to, or 7-8 days after, the tumour challenge with 500,000 OVA-expressing B16-melanoma cells injected intradermally into one of the mouse flanks; 10,000 OT-I cells were transferred intravenously to the recipient one day before prophylactic vaccination, or one day before B16 injection in the therapeutic vaccination model. […] The tumour growth was monitored by measuring the size of the neoplasm with a calliper.

[4] = tested on: OVA-expressing B16-melanoma tumours; test: Histological analysis of tumour and tumour infiltrates (Example 1); settings: immune histochemistry; FIG. 3A
Protocol: C57BLJ6 mice received 500,000 OVA-expressing B16-melanoma cells intradermally as described above. Six days later, the mice were vaccinated with 10 μg OVA ±100 μg TPCS2a as described above. On day 7, the mice were treated with 4.86 J/cm2 light. On day 15, the mice were euthanized and the tumours excised and cut in two pieces, one snap frozen in liquid nitrogen and one fixed in formalin (2 days) and 60% ethanol before embedded in paraffin. The frozen tissues were sectioned and stained with anti-mouse CD8, CD4, and caspase-3 antibodies for immune histochemistry. Paraffin sections were stained with haematoxylin and eosin.

OVA: Chicken ovalbumin protein, model antigen expressed by the transfected B16 melanoma cells
IFN-gamma ELISA after restimulation of spleen cells with SIINFEKL peptide [1]: virtually no effect
growth of established tumours [2]: grew readily
mice that developed tumours [3]: Fifty
infiltration of CD8 T cells into the intradermal tumour [4]: no benefit compared to no treatment
